Assay results: patent US8129546B2, “Derivatives for modulation of ion channels” (Vertex Pharmaceuticals Incorporated, priority 2005, dated 2012)

System: voltage-gated sodium ion channels (NaV)
Assay: Assays for detecting and measuring NaV inhibition (Table 3 activity)
Assay type: cell-based
Details: NaV subtype and assay format not stated
Description: Compounds of the invention are useful as antagonists of voltage-gated sodium ion channels. Antagonist properties of test compounds were assessed as follows. Cells expressing the NaV of interest were placed into microtiter plates. After an incubation period, the cells were stained with fluorescent dyes sensitive to the transmembrane potential. The test compounds were added to the microtiter plate. The cells were stimulated with either a chemical or electrical means to evoke a NaV dependent membrane potential change from unblocked channels, which was detected and measured with trans-membrane potential-sensitive dyes. Antagonists were detected as a decreased membrane potential response to the stimulus. The optical membrane potential assay utilized voltage-sensitive FRET sensors described by Gonzalez and Tsien (See, Gonzalez, J. E. and R. Y. Tsien (1995) “Voltage sensing by fluorescence resonance energy transfer in single cells” Biophys J 69(4): 1272-80, and Gonzalez, J. E. and R. Y. Tsien (1997) “Improved indicators of cell membrane potential that use fluorescence resonance energy transfer” Chem Biol 4(4): 269-77) in combination with instrumentation for measuring fluorescence changes such as the Voltage/Ion Probe Reader (VIPR®) (See, Gonzalez, J. E., K. Oades, et al. (1999) “Cell-based assays and instrumentation for screening ion-channel targets” Drug Discov Today 4(9): 431-439).
VIPR® Optical Membrane Potential Assay Method with Chemical Stimulation
24 hours before the assay on VIPR, CHO cells […] expressing a NaV1.2 type voltage-gated NaV are seeded in 96-well poly-lysine coated plates at 60,000 cells per well. Other subtypes are performed in an analogous mode in a cell line expressing the NaV of interest. • 1) On the day of the assay, medium is aspirated and cells are washed twice with 225 μL of Bath Solution #2 (BS#2). • 2) A 15 μM CC2-DMPE solution is prepared by mixing 5 mM coumarin stock solution with 10% Pluronic 127 1:1 and then dissolving the mix in the appropriate volume of BS#2. • 3) After bath solution is removed from the 96-well plates, the cells are loaded with 80 μL of the CC2-DMPE solution. Plates are incubated in the dark for 30 minutes at room temperature. • 4) While the cells are being stained with coumarin, a […] oxonol solution in BS#2 is prepared. In addition to DiSBAC2(3), this solution should contain 0.75 mM ABSC1 and […] veratridine (prepared from 10 mM EtOH stock, Sigma #V-5754). • 5) After 30 minutes, CC2-DMPE is removed and the cells are washed twice with 225 μL of BS#2. As before, the residual volume should be 40 μL. • 6) Upon removing the bath, the cells are loaded with 80 μL of the DiSBAC2(3) solution, after which test compound, dissolved in DMSO, is added to achieve the desired test concentration to each well from the drug addition plate and mixed thoroughly. The volume in the well should be roughly 121 μL. The cells are then incubated for 20-30 minutes. • 7) Once the incubation is complete, the cells are ready to be assayed on VIPR® with a sodium addback protocol. 120 μL of Bath solution #1 is added to stimulate the NaV dependent depolarization. […] tetracaine was used as an antagonist positive control for block of the NaV channel. Analysis of VIPR® Data:
Data are analyzed and reported as normalized ratios of background-subtracted emission intensities measured in the 460 nm and 580 nm channels. Background intensities are then subtracted from each assay channel. Background intensities are obtained by measuring the emission intensities during the same time periods from identically treated assay wells in which there are no cells. The response as a function of time is then reported as the ratios obtained using the following formula: […]
The data is further reduced by calculating the initial (Ri) and final (Rf) ratios. These are the average ratio values during part or all of the pre-stimulation period, and during sample points during the stimulation period. […]

For CNS(=O)(=O)C1CCN(C(=O)C(C)n2ccc3ccccc32)CC1 (centres unmarked) [Compound 1], the Activity was “None”.

O=C(CCn1ccc2cc(Cl)ccc21)N1CCC(S(=O)(=O)Nc2ccccc2)CC1 [Compound 2, 1-[3-(5-chloro-1H-indol-1-yl)propanoyl]-N-phenyl-piperidine-4-sulfonamide] and O=C(CCn1ccc2cc(Cl)ccc21)N1CCC(S(=O)(=O)Nc2ccccc2)C1 (centres unmarked) [Compound 16] fall in the same range of IC50: 5 to 20 µM for the first, 5 to 20 µM for the second.

CC(C(=O)N1CCC(S(=O)(=O)Nc2ccccc2)CC1)n1ccc2ccccc21 (centres unmarked) [Compound 3, 1-[2-(1H-Indol-1-yl)propanoyl]-N-phenyl-piperidine-4-sulfonamide] and CC(C(=O)N1CCC(S(=O)(=O)Nc2ccccc2)C1)n1ccc2ccccc21 (centres unmarked) [Compound 12, 1-[2-(1H-Indol-1-yl)propanoyl]-N-phenyl-pyrrolidine-3-sulfonamide] fall in the same range of IC50: 5 to 20 µM for the first, 5 to 20 µM for the second.

O=C(COc1ccc(F)c(Cl)c1)N1CCC(S(=O)(=O)NCc2ccccc2)CC1 [Compound 4, N-Benzyl-1-[2-(3-chloro-4-fluoro-phenoxy)acetyl]-piperidine-4-sulfonamide] and O=C(COc1ccc(F)c(Cl)c1)N1CCC(S(=O)(=O)NCc2ccccc2)C1 (centres unmarked) [Compound 13, N-Benzyl-1-[2-(3-chloro-4-fluoro-phenoxy)acetyl]-pyrrolidine-3-sulfonamide] fall in the same range of IC50: 5 to 20 µM for the first, 5 to 20 µM for the second.

First: O=C(COc1ccnc2c(C(F)(F)F)cccc12)N1CCC(S(=O)(=O)NCc2ccccc2)CC1 [Compound 5, N-Benzyl-1-[2-[[8-(trifluoromethyl)-4-quinolyl]oxy]acetyl]-piperidine-4-sulfonamide]
Second: O=C(COc1ccnc2c(C(F)(F)F)cccc12)N1CCC(S(=O)(=O)NCc2ccccc2)C1 (centres unmarked) [Compound 14]
The IC50 of the first is higher: over 20 µM for the first, 5 to 20 µM for the second.

Compared with CN(C)S(=O)(=O)C1CCN(C(=O)CCn2ccc3cc(Cl)ccc32)CC1 [Compound 7, 1-[3-(5-Chloro-1H-indol-1-yl)propanoyl]-N,N-dimethyl-piperidine-4-sulfonamide], O=C(CCn1ccc2cc(Cl)ccc21)N1CCC(S(=O)(=O)N2CCCC2)C1 (centres unmarked) [Compound 10, 3-(5-Chloro-1H-indol-1-yl)-1-(3-pyrrolidin-1-ylsulfonylpyrrolidin-1-yl)-propan-1-one] is lower in IC50: over 20 µM for the first, 5 to 20 µM for the second.

O=C(COc1ccnc2c(C(F)(F)F)cccc12)N1CCC(S(=O)(=O)N2CCCC2)C1 (centres unmarked) [Compound 11, 1-(3-Pyrrolidin-1-ylsulfonylpyrrolidin-1-yl)-2-[[8-(trifluoromethyl)-4-quinoly]oxy]ethanone] and O=C(COc1ccnc2c(C(F)(F)F)cccc12)N1CCC(S(=O)(=O)N2CCCC2)CC1 [Compound 20] cannot be ordered by IC50: over 20 µM for the first, over 20 µM for the second.

First: O=C(COc1ccc(F)c(Cl)c1)N1CCC(S(=O)(=O)Nc2ccccc2)C1 (centres unmarked) [Compound 15]
Second: O=C(COc1ccc(F)c(Cl)c1)N1CCC(S(=O)(=O)N2CCCC2)C1 (centres unmarked) [Compound 18]
The IC50 of the first is lower: 5 to 20 µM for the first, over 20 µM for the second.

First: CC(C(=O)N1CCC(S(=O)(=O)NCc2ccccc2)C1)n1ccc2ccccc21 (centres unmarked) [Compound 17]
Second: CC(C(=O)N1CCC(S(=O)(=O)N2CCCC2)C1)n1ccc2ccccc21 (centres unmarked) [Compound 21]
The IC50 of the first is lower: 5 to 20 µM for the first, over 20 µM for the second. The first is the more potent here.

First: O=C(CCn1ccc2cc(Cl)ccc21)N1CCC(S(=O)(=O)NCc2ccccc2)CC1 [Compound 19]
Second: CNS(=O)(=O)C1CCN(C(=O)COc2ccnc3c(C(F)(F)F)cccc23)CC1 [Compound 23]
The IC50 of the first is lower: 5 to 20 µM for the first, over 20 µM for the second.

System: not given
Assay: not given
Details: neuropathic pain; cited from earlier work

For NCC1(CC(=O)O)CCCCC1 [Gabapentin], the “share of patients in whom it works” value is given as 60%.
